# Assay results: patent US20220389013A1, “PYRIDOPYRIMIDINONE COMPOUNDS AND APPLICATIONS THEREOF” (BeBetter Med Inc., priority 2020, published 2022)
# Read-outs that look alike come from different tables or passages of the source.
# Assays:
# H23 (KRAS G12C) = test: Tumor cell proliferation inhibition assay (CellTiter-Glo), H23; format: cell-based, Human; settings: Homo sapiens, 72 h, 10% fetal bovine serum
# Outline: (§1)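 Growth was read as ATP by CellTiter-Glo luminescence, with inhibition normalised to DMSO (max) and medium-only (min) wells. IC50 came from sigmoidal dose-response fits.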
# [1] = Caco-2 cell transmembrane transport experiment; settings: human; for efflux ratio at 90 min, 10 μM: Caco-2, pH 7.4; for Papp B→A at 90 min, 10 μM: basolateral to apical
# Description: (§3) In this experiment, a monolayer of Caco-2 cells was used to assess drug penetration. […] The apparent permeability coefficient from apical to basolateral (Papp A-B) and the basolateral to apical permeability coefficient (Papp B-A) of compounds represent the ability of the compound to be transported in both directions, respectively.
# (§4) Apparent permeability coefficient (Papp)=(the volume of the receiver chamber/the filter surface area×culture time))×(the drug concentration of receiver chamber at the end of culture/(the drug concentration of donor chamber at the initial culture×dilution factor)
# (§5) In this experiment, Millipore cell culture plates (PSHT 010 R5): membrane area=0.7 cm^2, recipient side volume=0.8 mL (A-to-B) or 0.4 mL (B-to-A), incubation time=90 minutes.
# [2] = Pharmacokinetic (PK) experiment in rats by gavage; format: in vivo; settings: rat, plasma, po, male SD rats, 20 mg/kg; for AUC(0-t): read-out: AUC0-24
# H358 (KRAS G12C) = test: Tumor cell proliferation inhibition assay (CellTiter-Glo), H358; format: cell-based, Human; settings: Homo sapiens, NCI-H358, 72 h, 10% fetal bovine serum
# Outline: as §1
# KRAS-G12C/SOS1 = molecular target: T1, KRAS-G12C/SOS1 (Homo sapiens, UniProt P01116, G12C); test: HTRF KRAS-G12C/SOS1 binding assay; settings: 2 hours room temperature
# T1 construct: purchased Cisbio #63ADK000CB16PEG
# T1 sequence (P01116 1-188 isoform P01116-2 G12C): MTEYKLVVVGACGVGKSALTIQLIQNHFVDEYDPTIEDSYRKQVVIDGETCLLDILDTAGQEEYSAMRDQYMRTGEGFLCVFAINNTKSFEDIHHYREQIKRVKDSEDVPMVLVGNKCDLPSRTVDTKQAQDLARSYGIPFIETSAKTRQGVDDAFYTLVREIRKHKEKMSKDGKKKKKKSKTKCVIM
# Description: 2) Diluted the compound to be tested with diluent into 10× stock solution, starting from a concentration of 10000 nM, diluting in 4-fold gradient and a total of 6 concentration gradients.
# After incubated at room temperature for 15 minutes, added pre-mixed 5 uL of anti-Tag1-Tb^3+ and 5 uL of anti-Tag2-XL665. Sealed the plate and incubated at room temperature for 2 hours.
# Data were processed by using Graphpad prism software.
# H358 xenograft tumor [3] = test: H358 human non-small cell lung cancer subcutaneous mouse xenograft model, anticancer activity; format: in vivo, BALB/c nude mice; settings: 100 mg/kg, po, qd, 26 days
# Description: (§2) In this experiment, the anticancer activities of compounds 73-1 and 90-1 in the subcutaneous tumor model of H358 human non-small cell lung cancer xenograft mice, and the dose-response relationship of compound 73-1 in inhibiting the growth of H358 xenograft tumors were investigated. […] When H358 cells were cultured to a sufficient number, cells were collected. […] Vernier calipers were used to measure the size of the tumor. The formula for calculating the tumor volume is: tumor volume=(length×width^2)/2, and the formula for calculating the relative tumor proliferation rate T/C value is: T/C (%)=100×ΔT/ΔC (ΔT>0) or T/T (%)=100×ΔT/T0 (ΔT<0). ΔT is the difference of tumor volume in the treatment group, ΔC is the difference of tumor volume in the vehicle control group, and T0 is the tumor volume in the treatment group before administration.
# The dosage of the all groups, except the vehicle control group, was 100 mg/kg, 10 mL/kg orally administered by gavage, once a day. […] All the groups were administered continuously for 26 days.
# MIA-Paca2 (KRAS G12C) = test: Tumor cell proliferation inhibition assay (CellTiter-Glo), MIA-Paca2; format: cell-based, Human; settings: 10% fetal bovine serum
# Outline: as §1
# Caco-2 cell = Caco-2 cell transmembrane transport experiment; settings: 10 μM, pH 7.4, 37° C., 90 min
# Description: as §3, §4, §5
# [4] = test system: non-small cell lung cancer (NSCLC); settings: cited from earlier work
# mouse tumors = settings: mouse experiments, alone or combined; cited from earlier work
# [5] = test system: MIA Paca2 T2 xenograft tumor; test: MIA Paca2 T2 human pancreatic cancer xenograft mouse subcutaneous model; settings: for effect on tumor (in words): 28 days oral, 73-1 50 mg/kg bid, AMG510 100 mg/kg qd
# Description: MIAPaca2 cells were cultured to sufficient numbers in DMEM containing 10% fetal bovine serum and 2.5% horse serum, then harvested. 5 million cells suspended in 0.1 mL of serum-free medium and Matrigel (1:1, v/v) were injected subcutaneously into the right flank area of each mouse, carefully avoiding blood vessels and serially passaged 2 times in animals. The size of the tumor was measured using a vernier caliper, and the method for calculating the tumor volume and T/C value was the same as above. […] The compounds were respectively dissolved in 30% sulfobutyl-β-cyclodextrin (SBE-β-CD) and 1.5 equivalent of 1 M HCl (pH 4-5) at the corresponding concentrations. 10 mL/kg was orally administered continuously by gavage for 28 days.
# H358 xenograft tumor [6] = test: H358 xenograft model, dose-response of compound 73-1; format: in vivo, BALB/c nude mice; settings: po, qd, 28 days
# Description: as §2
# In the dose-response study of compound 73-1 inhibiting the growth of H358 xenograft tumors, when the H358 tumor volume reached an average of about 183 mm^3, the animals were respectively divided into different treatment groups, including vehicle (30% sulfobutyl-β-Cyclodextrin) control group, compound 73-1 orally administered group with doses of 12.5 mg/kg, 25 mg/kg, 50 mg/kg, and 100 mg/kg (n=8/group), administered once every day. […] All the groups were administered continuously for 28 days with 10 mL/kg oral administration.
# [7] = Caco-2, pH 7.4, Papp A-B Sample_01, 10 μM, pH 7.4, 37° C., 90 min, apical to basolateral
# [8] = Caco-2, pH 7.4, Papp A-B Sample_02, 10 μM, pH 7.4, 37° C., 90 min, apical to basolateral
# [9] = Caco-2, pH 7.4, Papp A-B mean value, 10 μM, pH 7.4, 37° C., 90 min, apical to basolateral
# [10] = Caco-2, pH 7.4, Papp B-A Sample_01, 10 μM, pH 7.4, 37° C., 90 min
# [11] = Caco-2, pH 7.4, Papp B-A Sample_02, 10 μM, pH 7.4, 37° C., 90 min
# [12] = Caco-2, pH 7.4, Papp B-A mean value, 10 μM, pH 7.4, 37° C., 90 min
# [13] = Caco-2, pH 7.4, apparent permeability coefficient Papp A-B, Caco-2
# [14] = 13 evaluable patients, highest dose of 960 mg
Compound,IC50 (H23 (KRAS G12C)) [nM],"efflux ratio at 90 min, 10 μM [1]","Papp A→B at 90 min, 10 μM [1, 7] [×10⁻⁶ cm/s]","Papp A→B at 90 min, 10 μM [1, 8] [×10⁻⁶ cm/s]","Papp A→B at 90 min, 10 μM [1, 9] [×10⁻⁶ cm/s]","Papp B→A at 90 min, 10 μM [1, 10] [×10⁻⁶ cm/s]","Papp B→A at 90 min, 10 μM [1, 11] [×10⁻⁶ cm/s]","Papp B→A at 90 min, 10 μM [1, 12] [×10⁻⁶ cm/s]","Papp A→B at 90 min, 10 μM [1, 13] [×10⁻⁶ cm/s]",AUC(0-inf) [2] [ng·h/mL],Cmax [2] [ng/mL],Tmax [2] [h],half-life [2] [h],AUC(0-t) [2] [ng·h/mL],IC50 (H358 (KRAS G12C)) [nM],IC50 (KRAS-G12C/SOS1) [nM],Changes of body weight (%) (H358 xenograft tumor [3]),tumor suppressor T/C value (%) (H358 xenograft tumor [3]),mice whose tumor completely disappeared (mouse tumors) [%],effect on tumor (in words) [5],other results
"C=CC(=O)N1C[C@H](C)N(c2nc(=O)n(-c3c(C)ccnc3C(C)C)c3nc(-c4c(F)ccc5ccoc45)c(Cl)cc23)C[C@H]1C (single isomer, unassigned) [Compound 90-1]",< 10,1.08,20.1,20.4,20.2,18.6,25.2,21.9,> 10,13800,3720,1.33,3.26,13800,< 10,< 50,23.3,−99.5,–,–,"melting point: 175 to 177 °C; IC50 (MIA-Paca2 (KRAS G12C); Homo sapiens, MIA PaCa-2, 72 h): < 10 nM"
"C=CC(=O)N1CCN(c2nc(=O)n(-c3c(C)ccnc3C(C)C)c3nc(-c4c(O)cccc4F)c(F)cc23)[C@@H](C)C1 (atropisomer, axis not shown) [AMG510, reference compound]",–,–,5.83,4.94,5.39,27.9,39.1,33.5,–,3430,3250,0.33,6.76,3370,–,–,16.4,−93.8,10,shrink the tumor,"efflux rate Papp(B-A)/Papp(A-B) (Caco-2 cell): 6.22; DCR [4, 14]: 100%; ORR [4, 14]: 54%; partial response (PR) [4, 14]: 54%; disease control rate (DCR) ([4]; 23 evaluable NSCLC patients): 96%; objective response rate (ORR) ([4]; 23 evaluable NSCLC patients): 48%; partial response (PR) ([4]; 23 evaluable NSCLC patients): 48%; progressive disease (PD) ([4]; 23 evaluable NSCLC patients): 4%; dose-limiting toxicity and adverse reactions above grade IV ([4]; phase I patients): No dose-limiting toxicity (DLT) and drug-related adverse reactions above grade IV were found; tolerability (in words) ([4]; phase I patients): well tolerated; Changes of body weight (%) ([5]; 100 mg/kg, po, qd, 28 days): 13.8%; effect on tumor (in words) (H358 xenograft tumor [3]): shrink the tumor"
pembrolizumab: PD-1 antibody,–,–,–,–,–,–,–,–,–,–,–,–,–,–,–,–,–,–,10,–,–
"C=CC(=O)N1CCN(c2nc(=O)n(-c3c(C)ccnc3C(C)C)c3nc(-c4c(F)ccc5ccoc45)c(Cl)cc23)[C@@H](C)C1 (single isomer, unassigned) [Compound 73-1]",< 10,1.12,16,20.8,18.4,17.2,24,20.6,> 10,4320,1750,0.67,3.23,4300,< 10,< 50,10.1,−100.0,–,cause the tumor to disappear completely,"Antitumor activity T/C value (%) (H358 xenograft tumor [6]; 12.5 mg/kg): −68.5%; Changes of body weight (%) (H358 xenograft tumor [6]; 12.5 mg/kg): −0.2%; Antitumor activity T/C value (%) (H358 xenograft tumor [6]; 25 mg/kg): −74.0%; Changes of body weight (%) (H358 xenograft tumor [6]; 25 mg/kg): −0.1%; Antitumor activity T/C value (%) (H358 xenograft tumor [6]; 50 mg/kg): −93.5%; Changes of body weight (%) (H358 xenograft tumor [6]; 50 mg/kg): 2.2%; Antitumor activity T/C value (%) (H358 xenograft tumor [6]; 100 mg/kg): −96.6%; Changes of body weight (%) (H358 xenograft tumor [6]; 100 mg/kg): 1.9%; clinical symptoms and body weight (in words) (H358 xenograft tumor [6]; 12.5, 25, 50 and 100 mg/kg, versus vehicle control): no significant clinical symptoms and no significant changes in body weight; effect on tumor growth (in words) (H358 xenograft tumor [6]; 12.5-100 mg/kg): inhibited the growth of H358 tumor in a dose-dependent manner and could cause partial disappearance of tumor; tolerability (in words) (H358 xenograft tumor [6]; 12.5-100 mg/kg): well tolerated; Antitumor activity T/C value (%) ([5]; 50 mg/kg, po, bid, 28 days): −100%; Changes of body weight (%) ([5]; 50 mg/kg, po, bid, 28 days): 10.2%; effect on tumor (in words) (H358 xenograft tumor [3]): cause the tumor to disappear completely; IC50 (MIA-Paca2 (KRAS G12C); 72 hours): < 10 nM"
